Values of other authors in patent publication US20040166069A1, “Boosting Tyrosinase Inhibiting Activity of Skin Whitening and Sunscreen Compositions” (priority 2003, published 2004).

Tested on: de-pigmentation
Details: relative to hydroquinone

Compound | quantity required compared to the quantity of hydroquinone used to achieve a similar effect
OC[C@H]1O[C@@H](Oc2ccc(O)cc2)[C@H](O)[C@@H](O)[C@@H]1O [arbutin] | over 100 times
O=C1O[C@H]([C@@H](O)CO)C(O)=C1O [ascorbic acid] | 17 times
